Data set [1] is described as follows: Tolerance on repeated administration. Format: in vivo.
Data set [2] can be described thus: Qualitative solubility in solvents. Format: physicochemical. As to conditions: for Insoluble dans: solvents in which the compound is insoluble; for Soluble dans: solvents in which the compound is soluble.
Data set [3] relates to contorsions à la phényl benzoquinone. Description: Phenylbenzoquinone writhing test (Siegmund), analgesic activity. Format: in vivo, souris. As to conditions: po, 0.5 h; dose giving 50 % decrease of writhes; per os, mouse, 30 minutes before i.p. phenylbenzoquinone; read-out: DE50 (the source's name). As for the experimental part:
L'activité sur le test des contorsions à la phényl benzoquinone (selon SIEGMUND et Coll. - J. Pharm. Exptl. Ther. 1957, 119, 453) […] administration du produit per os; la dose est exprimée en mg/kg chez la souris 30 minutes avant l'injection […] sont exprimés en pourcentage de variation du nombre de contorsions; pour les molécules les plus actives, nous avons déterminé la dose qui provoque 50 % de diminution des contorsions DE50. Dans le tableau ci-dessous nous avons répertorié les molécules dont l'activité est supérieure ou é[…] (DE50 ≃ 40).

The nature of data set [4]: Acute toxicity (LD50) in mice, Miller and Tainter method. As to conditions: in vivo, mouse about 20 g. The source says:
L'étude de la toxicité a été effectuée chez la souris conventionnelle pesant environ 20 grammes.
Les substances ont été administrées par voie orale et intrapéritonéale. Les doses létales 50 sont exprimées en mg/kg et ont été calculées selon la méthode de MILLER et TAINTER, Proc. Soc. Exper. Biol. Med. 1944, 57, 261.
A titre d'exemple dans le tableau ci-dessous figurent quelques valeurs de doses toxiques provoquant 50 % de mortalité.

The mark [5] stands for this setting: ip, intraperitoneal route, read-out: DL50 voie I.P.
The mark [6] stands for this setting: oral route, read-out: DL50 voie orale.

Molecules are shown by their SMILES. Where two headings read alike, the source gives them in different places.

For the compound `COc1ccc(-c2nc(=O)n(CC(C)=O)nc2-c2ccc(OC)cc2)cc1` [ST 753, Oxo-3 acétonyl-2 di(paraméthoxyphényl) 5-6 as triazine], the “tolérées par administration répétée” value in data set [1] is reported as “les mieux tolérées”. Further, in data set [2], the Insoluble dans entry is recorded as “l'eau, les acides et bases dilués, l'éther” and the Soluble dans result is reported as “l'éthanol, le benzène, le chlorure de méthylène et le chloroforme”. In addition, in data set [3], the ED50 turned out to be 15 mg/kg. Besides, the LD50 in data set [4] (setting [5]) was above 500 mg/kg. Further, the LD50 in data set [4] (setting [6]) is above 1500 mg/kg.

Take `COc1ccc(-c2nc(=O)n(C(C)C(C)=O)nc2-c2ccc(OC)cc2)cc1` (stereo not drawn) [ST 765, Oxo-3 α méthylacétonyl-2 di (paraméthoxyphényl) 5-6 as triazine]: the “tolérées par administration répétée” value in data set [1] is on record as “les mieux tolérées”. Moreover, in data set [2], the Insoluble dans result is recorded as “l'eau, les acides et bases dilués, et l'éther” and the Soluble dans entry is on record as “l'éthanol, le benzène, le chlorure de méthylène et le chloroforme”. Moreover, the ED50 in data set [3] came out at 10 mg/kg. Also, the LD50 in data set [4] (setting [5]) is above 1000 mg/kg. The LD50 in data set [4] (setting [6]) was above 2000 mg/kg.

Regarding `CC(=O)C(C)n1nc(-c2ccc(N(C)C)cc2)c(-c2ccc(N(C)C)cc2)nc1=O` (stereo not shown) [ST 802, Oxo-3αméthylacétonyl-2 di(paradiméthylaminophényl) 5-6 as triazine], in data set [2], the Insoluble dans result is recorded as “l'eau, les bases diluées et l'éther” and the Soluble dans entry is given as “les acides dilués aqueux, l'éthanol, le benzène, le chlorure de méthylène et le chloroforme”. The ED50 in data set [3] is 5 mg/kg. The LD50 in data set [4] (setting [6]) is above 1500 mg/kg.

In the case of `CN(C)c1ccc(-c2nc(=O)n(CC(=O)c3ccccc3)nc2-c2ccc(N(C)C)cc2)cc1` [ST 813, Oxo-3 acétophényl-2 di (paradiméthylaminophényl) 5-6 as triazine], the Insoluble dans entry in data set [2] is given as “l'eau, les bases diluées, le benzène, l'éthanol et l'éther”. For the same compound, the Soluble dans entry in data set [2] was “les acides dilués aqueux, le chlorure de méthylène et le chloroforme”. Besides, the figures for the LD50 in data set [4] (setting [5]) and in data set [4] (setting [6]) were around 750 mg/kg and above 1000 mg/kg, respectively.

With `COc1ccc(-c2nc(=O)n(CC(=O)c3ccc(O)c(O)c3)nc2-c2ccc(OC)cc2)cc1` [ST 827, Oxo-3 (3,4 dihydroxyphénacyl)-2 di(paraméthoxyphényl) 5-6 as triazine], in data set [2], the Insoluble dans entry is recorded as “l'eau, les acides dilués, le benzène, le chlorure de méthylène et l'éther” and the Soluble dans entry is given as “les bases diluées et l'éthanol”. Besides, the LD50 in data set [4] (setting [6]) was above 1000 mg/kg.

Take `CN(C)c1ccc(-c2nc(=O)n(CC(=O)c3ccc(O)c(O)c3)nc2-c2ccc(N(C)C)cc2)cc1` [ST 842, Oxo-3 (3,4 dihydroxyphénacyl)-2 di(paradiméthylaminophényl) 5-6 as triazine]: in data set [2], the Insoluble dans result was “l'eau, le benzène, le chlorure de méthylène, l'éther” and the Soluble dans entry is on record as “les acides et les basés dilués et l'éthanol”. In addition, in data set [4] (setting [6]), the LD50 was above 1000 mg/kg.

On to `COc1ccc(-c2nc(=O)n(CC(=O)c3ccc(Br)cc3)nc2-c2ccc(OC)cc2)cc1` [ST 844, Oxo-3 (p-bromophénacyl)-2 di(paraméthoxyphényl) 5-6 as triazine], for which, in data set [2], the Insoluble dans result is “l'eau, les acides et bases dilués”. Further, the Soluble dans result in data set [2] is “l'éthanol, le benzène, le chlorure de méthylène, le chloroforme”. Also, the LD50 in data set [4] (setting [5]) was around 800 mg/kg; in data set [4] (setting [6]), above 2000 mg/kg.

Take `COc1ccc(-c2nc(=O)n(C(C(=O)c3ccccc3)c3ccccc3)nc2-c2ccc(OC)cc2)cc1` (stereo not drawn) [ST 908, Oxo-3 (α phénylacétophénone)-2 di (paraméthoxyphényl)-5-6 as triazine]: in data set [2], the Insoluble dans entry was “l'eau, les acides et les bases dilués” and the Soluble dans entry was “l'éthanol, le chlorure de méthylène, le chloroforme et l'éther”. Also, in data set [4] (setting [5]), the LD50 was above 500 mg/kg. In addition, the LD50 in data set [4] (setting [6]) is above 1000 mg/kg.

As to `CC(=O)Cn1nc(-c2ccc(N(C)C)cc2)c(-c2ccc(N(C)C)cc2)nc1=O` [ST 910, Oxo-3 acétonyl-2 di(paradiméthylaminophényl) 5-6 as triazine], in data set [2], the Insoluble dans result is “l'eau et les bases diluées, le benzène et l'éther” and the Soluble dans result is on record as “les acides dilués, l'éthanol, le chlorure de méthylène et le chloroforme”. Besides, the ED50 in data set [3] is 4 mg/kg. In addition, in data set [4] (setting [6]), the LD50 is above 1500 mg/kg.

Turning to `CN(C)c1ccc(-c2nc(=O)n(C(C(=O)c3ccccc3)c3ccccc3)nc2-c2ccc(N(C)C)cc2)cc1` (stereo not drawn) [ST 911, Oxo-3 (α phénylacétophénone)-2 di(paradiméthylaminophényl) 5-6 as triazine], in data set [2], the Insoluble dans entry was “l'eau, les bases diluées, l'éthanol et l'éther” and the Soluble dans entry is given as “les acides dilués, le benzène, le chlorure de méthylène et le chloroforme”. Moreover, in data set [4] (setting [6]), the LD50 was above 1000 mg/kg.

As for `CC(=O)CCCn1nc(-c2ccc(N(C)C)cc2)c(-c2ccc(N(C)C)cc2)nc1=O` [ST 924, Oxo-3 (δ propylméthylcétone)-2 di(p-diméthylaminophényl)-5-6 as triazine], the ED50 in data set [3] is 7 mg/kg. Also, the LD50 in data set [4] (setting [6]) was above 1500 mg/kg.

Consider `CCC(=O)CCn1nc(-c2ccc(N(C)C)cc2)c(-c2ccc(N(C)C)cc2)nc1=O` [ST 925, Oxo-3 ( δ diéthylcétone)-2 di(paradiméthyaminophényl) 5, 6 as triazine], for which, in data set [2], the Insoluble dans result is recorded as “l'eau, les bases diluées et l'éther” and the Soluble dans result is “les acides dilués, l'éthanol, le benzène, le chlorure de méthylène et le chloroforme”. Also, the ED50 in data set [3] came out at 5 mg/kg. Further, the LD50 in data set [4] (setting [5]) is above 500 mg/kg. In addition, the LD50 in data set [4] (setting [6]) was above 1000 mg/kg.

For the compound `CCC(=O)CCn1nc(-c2ccc(OC)cc2)c(-c2ccc(OC)cc2)nc1=O` [ST 966, Oxo-3 (δ diéthylcétone)-2 di(paraméthoxyphényl)-5, 6 as triazine], in data set [2], the Insoluble dans result was “l'eau, les bases et les acides dilués et l'éther” and the Soluble dans result is given as “l'éthanol, le benzène, le chlorure de méthylène et le chloroforme”. For the same compound, the LD50 in data set [4] (setting [6]) is above 2000 mg/kg.

With `O=C(OCC(O)CO)c1ccccc1Nc1ccnc2cc(Cl)ccc12` (stereo not shown) [glafénine, reference compound], the ED50 in data set [3] is around 40 mg/kg.

The values above are taken from EP0036357A1, “Antalgic and antiagregant cetonic derivatives of 5,6-diaryl-1,2,4-triazines, usable in the treatment of migraine” (PIERRE FABRE S.A., priority 1980, dated 1981).
